Common to all, as to format: biochemical
For test [1], the target named is T1, Recombinant human GCPII (Homo sapiens, UniProt Q04609).
T1 construct: made in house
Put plainly: In vitro GCPII inhibition assay, fluorescence-based, RP-HPLC readout (screening at 20 μM and IC50). Particulars: for IC50: substrate concentration at KM (100 nM Glu-Glu dipeptide labeled with fluorescein). The protocol:
The inhibitory potency of the selected compounds against GCPII was determined using a fluorescence-based assay developed in-house. Recombinant human GCPII purified as described previously[40],[41] (final concentration 0.02 nM) was preincubated with 20 μM test compound for the screening in 50 mM Tris-HCl, 150 mM NaCl, 0.001% C12E8 at 37 °C for 10 min. The reaction was initiated by the addition of 100 nM Glu-Glu dipeptide labeled with fluorescein (substrate)[42] in a total volume of 50 μL. Following 15 min incubation, the reaction was terminated by the addition of 5 μL of 0.1% TFA in 5% acetonitrile. […] The data were fitted using the GraphPad Prism software, and IC50 values were calculated from the inhibition curves of two independent experiments using a nonlinear analysis protocol.

Test [2] deals with T1, Recombinant human GCPII. The test can be described thus: GCPII IC50 with substrate concentration 10x above KM (mode of inhibition). Particulars: for Increase of GCPII IC50 at 10x KM substrate versus KM: IC50 at 1 μM substrate relative to IC50 at 100 nM substrate; for IC50: substrate concentration 10 times above KM (1 μM). The protocol:
The inhibitory potency of the selected compounds against GCPII was determined using a fluorescence-based assay developed in-house. Recombinant human GCPII purified as described previously[40],[41] (final concentration 0.02 nM) was preincubated with 20 μM test compound for the screening in 50 mM Tris-HCl, 150 mM NaCl, 0.001% C12E8 at 37 °C for 10 min. […] Following 15 min incubation, the reaction was terminated by the addition of 5 μL of 0.1% TFA in 5% acetonitrile. Reaction mixtures were then analyzed by RP-HPLC with a Kinetex 2.6 μm XB-C18 100 Å column with a fluorescence detector set to λEX/λEM = 492/516. The GCPII inhibition in the SPECS hits samples was calculated using the noninhibited reaction as a control. Inhibition constants of the compounds active in the in vitro screening were determined using increasing concentrations of inhibitors. The data were fitted using the GraphPad Prism software, and IC50 values were calculated from the inhibition curves of two independent experiments using a nonlinear analysis protocol.

The target in another test is T2, Recombinant human HDAC10 (Homo sapiens, UniProt Q969S8).
T2 construct: made in house
T2 sequence (Q969S8 1-669): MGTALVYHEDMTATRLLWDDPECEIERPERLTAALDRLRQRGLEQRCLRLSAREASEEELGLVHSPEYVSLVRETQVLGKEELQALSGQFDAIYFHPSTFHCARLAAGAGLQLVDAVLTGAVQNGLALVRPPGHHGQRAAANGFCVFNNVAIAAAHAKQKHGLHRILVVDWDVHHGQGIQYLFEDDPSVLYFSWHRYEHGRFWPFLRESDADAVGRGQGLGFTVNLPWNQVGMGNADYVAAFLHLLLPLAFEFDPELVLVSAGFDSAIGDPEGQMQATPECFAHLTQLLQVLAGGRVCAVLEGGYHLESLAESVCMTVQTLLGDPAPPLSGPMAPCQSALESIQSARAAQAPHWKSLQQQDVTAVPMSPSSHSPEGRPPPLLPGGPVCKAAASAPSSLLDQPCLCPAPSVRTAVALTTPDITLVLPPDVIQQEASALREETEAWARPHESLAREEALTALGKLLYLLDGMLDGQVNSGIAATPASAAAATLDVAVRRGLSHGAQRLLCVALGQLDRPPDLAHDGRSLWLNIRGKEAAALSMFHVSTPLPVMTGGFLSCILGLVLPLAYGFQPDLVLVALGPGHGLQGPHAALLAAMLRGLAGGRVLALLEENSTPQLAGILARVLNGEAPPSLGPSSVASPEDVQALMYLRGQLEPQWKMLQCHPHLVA
The test can be described thus: Inhibitor specificity: fluorescence-based HDAC10 activity assay. Particulars: for HDAC10 inhibition (in words): off-target specificity. Here is the method:
The fluorescence-based activity assay used was developed in-house. Recombinant human HDAC10 purified as described previously[43] (0.5 nM) was preincubated with dilution series of compounds in 50 mM 4-(2-hydroxyethyl)-1-piperazineethanesulfonic acid (HEPES), 140 mM NaCl, 10 mM KCl, 2 mg/mL bovine serum albumin (BSA), and 1 mM tris(2-carboxyethyl) phosphine, pH 7.4 at 37 °C for 10 min. The reaction was initiated by the addition of a 10 μM substrate (spermidine labeled with fluorescein, provided by the group of Prof. Mike Schutkowski)[43] in a total volume of 50 μL. Following 30-min incubation, the reaction was terminated by the addition of 5 μL of 0.5% acetic acid and centrifuged at 2000g at room temperature for 15 min to remove precipitated BSA. […] The HDAC10 inhibition was calculated using the noninhibited reaction as a control. Inhibition constants of the compounds were determined using increasing concentrations of inhibitors. The data were fitted using the GraphPad Prism software,[44] and IC50 values were calculated from the inhibition curves of two independent experiments using a nonlinear analysis protocol.

[3] abbreviates: read-out: GCPII IC50 at substrate concentration 10 times above the KM.
[4] abbreviates: 10 μM fluorescein-labeled spermidine substrate, read-out: HDAC10 IC50.

“And” between values parts separate entries of the source, which are not always exact repeats. Equal values may be shown once. Read-outs that look alike come from different tables or passages of the source.

T1 sequence (Q04609 whole entry): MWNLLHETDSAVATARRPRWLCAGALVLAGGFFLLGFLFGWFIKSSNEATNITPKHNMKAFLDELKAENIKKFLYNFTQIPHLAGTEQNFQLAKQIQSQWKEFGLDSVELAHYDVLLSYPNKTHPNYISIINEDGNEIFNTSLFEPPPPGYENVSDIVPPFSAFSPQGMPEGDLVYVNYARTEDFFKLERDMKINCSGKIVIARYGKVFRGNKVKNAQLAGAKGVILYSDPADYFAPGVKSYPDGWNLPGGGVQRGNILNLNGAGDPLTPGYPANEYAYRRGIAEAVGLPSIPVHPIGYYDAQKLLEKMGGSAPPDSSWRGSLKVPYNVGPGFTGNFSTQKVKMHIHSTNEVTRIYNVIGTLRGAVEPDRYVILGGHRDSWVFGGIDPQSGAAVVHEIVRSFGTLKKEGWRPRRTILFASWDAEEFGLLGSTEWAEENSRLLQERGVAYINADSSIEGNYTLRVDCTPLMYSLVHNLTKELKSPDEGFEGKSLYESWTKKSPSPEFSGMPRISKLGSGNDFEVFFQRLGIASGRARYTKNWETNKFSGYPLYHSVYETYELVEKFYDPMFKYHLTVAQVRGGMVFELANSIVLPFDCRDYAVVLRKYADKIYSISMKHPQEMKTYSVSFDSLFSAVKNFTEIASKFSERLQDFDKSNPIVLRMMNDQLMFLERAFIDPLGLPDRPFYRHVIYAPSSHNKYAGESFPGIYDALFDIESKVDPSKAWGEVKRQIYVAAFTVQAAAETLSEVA

On to `O=C(O)CSC1=C(SCC(=O)O)C(=O)C(SCC(=O)O)=C(SCC(=O)O)C1=O` [Compound 17], for which the IC50 on Recombinant human GCPII [1] was 4.5 µM and 4.51 µM; on Recombinant human GCPII [2] (read-out: GCPII IC50 10x > KM), 9.39 µM; at Recombinant human GCPII [2] (setting [3]), 9.4 ± 0.1 µM; at Recombinant human HDAC10 (setting [4]), 2.21 µM and 2.2 µM. Also, the “Increase of GCPII IC50 at 10x KM substrate versus KM” value (“Increase of GCPII IC50” below) at Recombinant human GCPII [2] was “approximately twice”.

In the case of `O=[N+]([O-])c1ccc(C(CCc2nnn[nH]2)(CCc2nnn[nH]2)c2nnn[nH]2)cc1` [Compound 18], the inhibition at 20 µM on Recombinant human GCPII [1] (compound at 20 μM, 100 nM fluorescein-labeled Glu-Glu dipeptide substrate, read-out: Inhibition [%] of GCPII activity) was more than 50%. For the same molecule, the IC50 on Recombinant human GCPII [1] is 15 µM; on Recombinant human GCPII [2] (read-out: GCPII IC50 10x > KM), 27.6 µM; on Recombinant human GCPII [2] (setting [3]) it was more than 20 µM; at Recombinant human HDAC10 (setting [4]), more than 100 µM. Also, the “Increase of GCPII IC50” value at Recombinant human GCPII [2] is on record as “approximately twice”. In addition, the “HDAC10 inhibition (in words)” value on Recombinant human HDAC10 is “did not exhibit any HDAC10 inhibition”.

With `O=C(O)c1ccccc1-c1c2ccc(=O)c(I)c-2oc2c(I)c(OS(=O)(=O)c3ccc(Br)cc3)ccc12` [Compound 46], the IC50 on Recombinant human GCPII [1] was 0.353 ± 0.024 µM; at Recombinant human GCPII [2] (read-out: GCPII IC50 10x > KM), 1.35 µM; at Recombinant human GCPII [2] (setting [3]), 1.4 ± 0.1 µM; on Recombinant human HDAC10 (HDAC10 IC50, 10 μM fluorescein-labeled spermidine substrate), more than 100 µM. The “Increase of GCPII IC50” value on Recombinant human GCPII [2] is on record as 4 fold. Also, the “HDAC10 inhibition (in words)” value on Recombinant human HDAC10 is recorded as “did not exhibit any HDAC10 inhibition”.
